pKd: −log10 of the molar value.
Each compound was assayed against VHL (co-expressed with Elongin B and Elongin C) (Homo sapiens (Human), UniProt P40337) (assay: Measurement of intermolecular interactions using surface plasmon resonance (Biacore T200), Kd value for VHL). Details: not given.
VHL (co-expressed with Elongin B and Elongin C), sequence (P40337 whole entry, looked up): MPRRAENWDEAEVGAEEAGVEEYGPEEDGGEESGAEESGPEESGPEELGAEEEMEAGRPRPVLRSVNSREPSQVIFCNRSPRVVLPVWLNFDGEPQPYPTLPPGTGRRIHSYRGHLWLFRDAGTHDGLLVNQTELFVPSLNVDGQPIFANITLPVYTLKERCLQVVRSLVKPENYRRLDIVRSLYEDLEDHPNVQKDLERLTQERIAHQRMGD
VHL (co-expressed with Elongin B and Elongin C), sequence (Q15370 whole entry partner, looked up): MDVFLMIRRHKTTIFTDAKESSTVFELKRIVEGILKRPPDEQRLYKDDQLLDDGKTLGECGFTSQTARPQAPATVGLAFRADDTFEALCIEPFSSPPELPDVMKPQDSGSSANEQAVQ
VHL (co-expressed with Elongin B and Elongin C), sequence (Q15369 whole entry partner, looked up): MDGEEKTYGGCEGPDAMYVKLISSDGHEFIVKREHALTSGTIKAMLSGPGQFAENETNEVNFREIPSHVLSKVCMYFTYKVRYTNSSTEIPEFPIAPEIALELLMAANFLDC
Assay type: binding
Description: As the device, Biacore T200 (manufactured by GE Healthcare) was used. VHL was obtained by co-expressing Elongin B and Elongin C with a Twin-Strep-tag added to the N-terminus. As the sensor chip, Sensor chip CM5 (manufactured by GE Healthcare) was used. First, Strep-Tactin XT (manufactured by GE Healthcare) was immobilized on the sensor chip by amine coupling. Thereafter, VHL was immobilized using the affinity of Strep-Tactin XT and Twin-Strep-tag, and VHL was further immobilized on the sensor chip by amine coupling.
As the running buffer, a mixed solution of 20 mM HEPES pH 7.5, 150 mM NaCl, 1 mM TCEP, 0.005% Tween 20, and 2% DMSO was used. […] The Contact time and the Dissociation time were determined according to the properties of the compounds. For many compounds, 60 seconds and 120 seconds were respectively used.
In the case of COc1cc(C(C(=O)N2C[C@H](O)C[C@H]2c2nc(C(=O)N3CCC(Nc4ccccc4)CC3)c[nH]2)C(C)C)on1 (stereo partly drawn) [Example 150, 1-[(2S,4R)-2-[4-(4-anilinopiperidine-1-carbonyl)-1H-imidazol-2-yl]-4-hydroxypyrrolidin-1-yl]-2-(3-methoxyisoxazol-5-yl)-3-methylbutan-1-one], the pKd was 5.00 to 6.00.

Same assay, conditions: SPR, immobilized VHL, 25° C.; read-out: Kd
In the case of CNC(=O)c1cccc(-c2cnc([C@@H]3C[C@@H](O)CN3C(=O)C(c3cc(OC)no3)C(C)C)[nH]2)c1 (stereo partly drawn) [Example 80, 3-[2-[(2S,4R)-4-hydroxy-1-[2-(3-methoxy-1,2-oxazol-5-yl)-3-methylbutanoyl]pyrrolidin-2-yl]-1H-imidazol-5-yl]-N-methylbenzamide], the pKd was 5.00 to 6.00. CC(=O)N[C@H](C(=O)N1C[C@H](O)C[C@H]1c1ncc(-c2cccc(-c3scnc3C)c2)[nH]1)C(C)(C)C [Example 6, N-[(2S)-1-[(2S,4R)-4-hydroxy-2-[5-[3-(4-methyl-1,3-thiazol-5-yl)phenyl]-1H-imidazol-2-yl]pyrrolidin-1-yl]-3,3-dimethyl-1-oxobutan-2-yl]acetamide] showed a pKd of 5.00 to 6.00. Compound CC(=O)N[C@H](C(=O)N1C[C@H](O)C[C@H]1c1nc(C(=O)N(C)Cc2ccc(F)cc2)c[nH]1)C(C)(C)C [Example 19, 2-[(2S,4R)-1-[(2S)-2-acetamido-3,3-dimethylbutanoyl]-4-hydroxypyrrolidin-2-yl]-N-[(4-fluorophenyl)methyl]-N-methyl-1H-imidazole-4-carboxamide] has a pKd of 5.00 to 6.00. COc1cccc(-c2cnc([C@@H]3C[C@@H](O)CN3C(=O)C(c3cc(OC)no3)C(C)C)[nH]2)c1 (stereo partly drawn) [Example 61, 1-[(2S,4R)-4-hydroxy-2-[5-(3-methoxyphenyl)-1H-imidazol-2-yl]pyrrolidin-1-yl]-2-(3-methoxy-1,2-oxazol-5-yl)-3-methylbutan-1-one] gave a pKd of 5.00 to 6.00. Work on CC(=O)N[C@H](C(=O)N1C[C@H](O)C[C@H]1c1nc(C(=O)N(C)Cc2ccccc2F)c[nH]1)C(C)(C)C [Example 17, 2-[(2S,4R)-1-[(2S)-2-acetamido-3,3-dimethylbutanoyl]-4-hydroxypyrrolidin-2-yl]-N-[(2-fluorophenyl)methyl]-N-methyl-1H-imidazole-4-carboxamide] yielded a pKd of 5.00 to 6.00. CC(=O)N[C@H](C(=O)N1C[C@H](O)C[C@H]1c1ncc(-c2ccc(-c3scnc3C)cc2)[nH]1)C(C)(C)C [Example 89, N-[(2S)-1-[(2S,4R)-4-hydroxy-2-[5-[4-(4-methyl-1,3-thiazol-5-yl)phenyl]-1H-imidazol-2-yl]pyrrolidin-1-yl]-3,3-dimethyl-1-oxobutan-2-yl]acetamide] showed a pKd of 5.00 to 6.00. COc1cc(C(C(=O)N2C[C@H](O)C[C@H]2c2nc(C(=O)N(C)Cc3ccc(-c4scnc4C)cc3)c[nH]2)C(C)C)on1 (stereo partly drawn) [Example 54, 2-[(2S,4R)-4-hydroxy-1-[2-(3-methoxy-1,2-oxazol-5-yl)-3-methylbutanoyl]pyrrolidin-2-yl]-N-methyl-N-[[4-(4-methyl-1,3-thiazol-5-yl)phenyl]methyl]-1H-imidazole-4-carboxamide] showed a pKd greater than 6.00. With COc1cc(C(C(=O)N2C[C@H](O)C[C@H]2c2nc(C)cs2)C(C)C)on1 (stereo partly drawn) [Example 147, 1-[(2S,4R)-4-hydroxy-2-(4-methylthiazol-2-yl)pyrrolidin-1-yl]-2-(3-methoxyisoxazol-5-yl)-3-methylbutan-1-one] the pKd was 4.30 to 5.00. For CC(=O)N[C@H](C(=O)N1C[C@H](O)C[C@H]1c1nc(C(=O)N(C)Cc2cccc(C(F)(F)F)c2)c[nH]1)C(C)(C)C [Example 21, 2-[(2S,4R)-1-[(2S)-2-acetamido-3,3-dimethylbutanoyl]-4-hydroxypyrrolidin-2-yl]-N-methyl-N-[[3-(trifluoromethyl)phenyl]methyl]-1H-imidazole-4-carboxamide], the pKd was 5.00 to 6.00. COc1cc(C(C(=O)N2C[C@H](O)C[C@H]2c2nc(C(=O)N(C)Cc3ccc(-c4ccnc(C)c4)cc3)c[nH]2)C(C)C)on1 (stereo partly drawn) [Example 153, 2-[(2S,4R)-4-hydroxy-1-[2-(3-methoxyisoxazol-5-yl)-3-methylbutanoyl]pyrrolidin-2-yl]-N-methyl-N-[[4-(2-methyl-4-pyridyl)phenyl]methyl]-1H-imidazole-4-carboxamide] was tested, and the pKd was greater than 6.00. COc1cc(C(C(=O)N2C[C@H](O)C[C@H]2c2nc(C(=O)N(C)[C@H](C)C(=O)NCc3ccccc3)c[nH]2)C(C)C)on1 (stereo partly drawn) [Example 159, N-[(1R)-2-(benzylamino)-1-methyl-2-oxo-ethyl]-2-[(2S,4R)-4-hydroxy-1-[2-(3-methoxyisoxazol-5-yl)-3-methylbutanoyl]pyrrolidin-2-yl]-N-methyl-1H-imidazole-4-carboxamide] gave a pKd greater than 6.00. CNC(=O)c1ccccc1-c1cnc([C@@H]2C[C@@H](O)CN2C(=O)C(c2cc(OC)no2)C(C)C)[nH]1 (stereo partly drawn) [Example 64, 2-[2-[(2S,4R)-4-hydroxy-1-[2-(3-methoxy-1,2-oxazol-5-yl)-3-methylbutanoyl]pyrrolidin-2-yl]-1H-imidazol-5-yl]-N-methylbenzamide] was tested, and the pKd was 5.00 to 6.00. Work on CC(=O)N[C@H](C(=O)N1C[C@H](O)C[C@H]1c1nc(C(=O)N(C)Cc2ccc3ccccc3c2)c[nH]1)C(C)(C)C [Example 30, 2-[(2S,4R)-1-[(2S)-2-acetamido-3,3-dimethylbutanoyl]-4-hydroxypyrrolidin-2-yl]-N-methyl-N-(naphthalen-2-ylmethyl)-1H-imidazole-4-carboxamide] yielded a pKd of 5.00 to 6.00. In the case of CC(=O)N[C@H](C(=O)N1C[C@H](O)C[C@H]1c1nc(C(=O)N(C)Cc2ccc(-c3scnc3C)cc2)c[nH]1)C(C)(C)C [Example 35, 2-[(2S,4R)-1-[(2S)-2-acetamido-3,3-dimethylbutanoyl]-4-hydroxypyrrolidin-2-yl]-N-methyl-N-[[4-(4-methyl-1,3-thiazol-5-yl)phenyl]methyl]-1H-imidazole-4-carboxamide], the pKd was 5.00 to 6.00. With CNC(=O)c1nc([C@@H]2C[C@@H](O)CN2C(=O)C(c2cc(OC)no2)C(C)C)[nH]c1-c1ccc(OC)cc1 (stereo partly drawn) [Example 75, 2-[(2S,4R)-4-hydroxy-1-[2-(3-methoxy-1,2-oxazol-5-yl)-3-methylbutanoyl]pyrrolidin-2-yl]-5-(4-methoxyphenyl)-N-methyl-1H-imidazole-4-carboxamide] the pKd was 5.00 to 6.00. For CC(=O)N[C@H](C(=O)N1C[C@H](O)C[C@H]1c1nc(C(=O)N(C)Cc2ccncc2)c[nH]1)C(C)(C)C [Example 49, 2-[(2S,4R)-1-[(2S)-2-acetamido-3,3-dimethylbutanoyl]-4-hydroxypyrrolidin-2-yl]-N-methyl-N-(pyridin-4-ylmethyl)-1H-imidazole-4-carboxamide], the pKd was 5.00 to 6.00. With COc1cc(C(C(=O)N2C[C@H](O)C[C@H]2c2nc(C(=O)N3CCC(c4ccc(C)cn4)CC3)c[nH]2)C(C)C)on1 (stereo partly drawn) [Example 144, 1-[(2S,4R)-4-hydroxy-2-[4-[4-(5-methyl-2-pyridyl)piperidine-1-carbonyl]-1H-imidazol-2-yl]pyrrolidin-1-yl]-2-(3-methoxyisoxazol-5-yl)-3-methylbutan-1-one] the pKd was 5.00 to 6.00. COc1cc(C(C(=O)N2C[C@H](O)C[C@H]2c2nc(C(=O)N3CCC(c4ccncc4)CC3)c[nH]2)C(C)C)on1 (stereo partly drawn) [Example 139, 1-[(2S,4R)-4-hydroxy-2-[4-[4-(4-pyridyl)piperidine-1-carbonyl]-1H-imidazol-2-yl]pyrrolidin-1-yl]-2-(3-methoxyisoxazol-5-yl)-3-methylbutan-1-one] gave a pKd of 5.00 to 6.00. COc1cc(C(C(=O)N2C[C@H](O)C[C@H]2c2nccn2Cc2ccccc2Oc2ccccc2)C(C)C)on1 (stereo partly drawn) [Example 69, 1-[(2S,4R)-4-hydroxy-2-[1-[(2-phenoxyphenyl)methyl]imidazol-2-yl]pyrrolidin-1-yl]-2-(3-methoxy-1,2-oxazol-5-yl)-3-methylbutan-1-one] showed a pKd of 4.30 to 5.00. With CC(=O)N[C@H](C(=O)N1C[C@H](O)C[C@H]1c1ncc(Cc2cccc(-c3scnc3C)c2)[nH]1)C(C)(C)C [Example 91, N-[(2S)-1-[(2S,4R)-4-hydroxy-2-[5-[[3-(4-methyl-1,3-thiazol-5-yl)phenyl]methyl]-1H-imidazol-2-yl]pyrrolidin-1-yl]-3,3-dimethyl-1-oxobutan-2-yl]acetamide] the pKd was 5.00 to 6.00. Work on CC(=O)N[C@H](C(=O)N1C[C@H](O)C[C@H]1c1nc(C(=O)N(C)Cc2cccnc2)c[nH]1)C(C)(C)C [Example 53, 2-[(2S,4R)-1-[(2S)-2-acetamido-3,3-dimethylbutanoyl]-4-hydroxypyrrolidin-2-yl]-N-methyl-N-(pyridin-3-ylmethyl)-1H-imidazole-4-carboxamide] yielded a pKd of 5.00 to 6.00. For COc1cc(C(C(=O)N2C[C@H](O)C[C@H]2c2ncc[nH]2)C(C)C)on1 (stereo partly drawn) [Example 112, 1-[(2S,4R)-4-hydroxy-2-(1H-imidazol-2-yl)pyrrolidin-1-yl]-2-(3-methoxyisoxazol-5-yl)-3-methylbutan-1-one], the pKd was 5.00 to 6.00. With COc1cccc(Cc2cnc([C@@H]3C[C@@H](O)CN3C(=O)C(c3cc(OC)no3)C(C)C)[nH]2)c1 (stereo partly drawn) [Example 63, 1-[(2S,4R)-4-hydroxy-2-[5-[(3-methoxyphenyl)methyl]-1H-imidazol-2-yl]pyrrolidin-1-yl]-2-(3-methoxy-1,2-oxazol-5-yl)-3-methylbutan-1-one] the pKd was 5.00 to 6.00. For COc1cc(C(C(=O)N2C[C@H](O)C[C@H]2c2nc(C(=O)N(C)CCNc3ccccc3)c[nH]2)C(C)C)on1 (stereo partly drawn) [Example 158, N-(2-anilinoethyl)-2-[(2S,4R)-4-hydroxy-1-[2-(3-methoxyisoxazol-5-yl)-3-methylbutanoyl]pyrrolidin-2-yl]-N-methyl-1H-imidazole-4-carboxamide], the pKd was greater than 6.00. CC(=O)N[C@H](C(=O)N1C[C@H](O)C[C@H]1c1ncc(Cc2cccc(Br)c2)[nH]1)C(C)(C)C [Example 90, N-[(2S)-1-[(2S,4R)-2-[5-[(3-bromophenyl)methyl]-1H-imidazol-2-yl]-4-hydroxypyrrolidin-1-yl]-3,3-dimethyl-1-oxobutan-2-yl]acetamide] showed a pKd of 5.00 to 6.00.

— patent US20230312542A1, “HYDROXYPYRROLIDINE DERIVATIVE AND MEDICINAL APPLICATION THEREOF” (MITSUBISHI TANABE PHARMA CORPORATION, priority 2020, published 2023)
